Ends that are not written are not given here.
Target: HLA-A*0201 (Homo sapiens, UniProt P04439, D140Y/D185E/D98H/E176V/E277Q/G131W/G231S/I119V/I121R/I166T/I218V/L300P/L318F/N151K/N90K/P208A/P217A/Q86G/Q94H/R138H/R169H/T345S)
Assay: Peptide-HLA binding (competition with Fl-labeled HLA-A*0201 binding peptide)
Conditions: not given
Procedure: Peptide binding was assessed as described (21). […] HLA-bound and non-bound Fl-labeled peptides were separated by HPLC gel permeation chromatography with fluorescence detection. The concentration at which the test peptide reduced the amount of HLA-bound Fl-labeled peptide by 50% (IC50) was calculated using non-linear regression analysis. To select candidate HLA-A*0201 binding peptides from the insulin B chain, the molecule was screened for HLA-A*0201 binding motif containing peptides with a combination of two known binding prediction algorithms (18).

Row | Compound | IC50 [µM]
1 | ALYLVCGER [Peptide 14-22] | 90.2
2 | HLCGSHLVEA [Peptide 5-14] | 0.06
3 | HLVEALYLVCG [Peptide 10-20] | 0.19
4 | LVEALYLVC [Peptide 11-19] | 3.6
5 | SHLVEALYLV [Peptide 9-18] | 1.37

Same assay, conditions: peptide concentration needed to inhibit binding of FL-labeled reference peptide for 50%; read-out: IC50 (binding affinity for HLA-A*0201)

Row | IC50 [µM] | Compound
6 | > 100 | CC(C)C[C@H](NC(=O)[C@H](C)N)C(=O)N[C@@H](Cc1ccc(O)cc1)C(=O)N[C@@H](CC(C)C)C(=O)N[C@H](C(=O)N[C@@H](CS)C(=O)NCC(=O)N[C@@H](CCC(=O)O)C(=O)N[C@@H](CCCNC(=N)N)C(=O)NCC(=O)O)C(C)C [Peptide 14-23]
7 | 2.26 | ALYLVCGERGF [Peptide 14-24]
8 | 1.75 | HLVEALYLVC [Peptide 10-19]
9 | 59.5 | SHLVEALYL [Peptide 9-17]
10 | 2.3 | YLVCGERGFF [Peptide 16-25]
11 | 8.59 | YLVCGERGFFY [Peptide 16-26]

The next lines start with the compound.

Row | Compound | IC50 [µM]
12 | GSHLVEALYLV [Peptide 8-18] | 3.73
13 | HLCGSGLVEAL [Peptide 5-15, HLCGSGLVEAL] | 0.44
14 | QHLCGSHLV [Peptide 4-12] | 9.12

Reference: US20090023630A1, “Methods and Means for Use in Diagnostics and Treatment of Diabetes” (priority 2005, published 2009)
